Results published in patent US20130136691A1, “GASTRIN […] PEPTIDE COMPOUNDS” (priority 2008, published 2013).

Key:
human GRP-R = target: T1, human GRP-R (Homo sapiens, UniProt P30550); assay: Competition assay with 125I-BBN for GRP-R in PC3 cells (IC50); format: binding; details: competition with 125I-BBN
T1 construct: host or cells: PC3 / PC-3 human prostate cancer cells (intact, plated)
Protocol: To identify potential lead compounds, an in vitro assay that identifies compounds with high affinity for GRP-R was used.
PC3 (human prostate cancer cell line) were obtained from the American Type Culture Collection and cultured in RPMI 1640 (ATCC) in tissue culture flasks (Corning). This growth medium was supplemented with 10% heat inactivated FBS (Hyclone, SH30070.03), 10 mM HEPES (GibcoBRL, 15630-080), and antibiotic/antimycotic (GibcoBRL, 15240-062) for a final concentration of penicillin-streptomycin (100 units/mL), and fungizone (0.25 μg/mL). […] Cells for experiments were plated at a concentration of 2.0×10^4/well either in 96-well white/clear bottom microtiter plates (Falcon Optilux-I) or 96 well black/clear collagen I cellware plates (Beckton Dickinson Biocoat). Plates were used for binding studies on day 1 or 2 post-plating.
RPMI 1640 (ATCC) supplemented with 20 mM HEPES, 0.1% BSA (w/v), 0.5 mM PMSF (AEBSF), Bacitracin (50 mg/500 ml), pH 7.4. ^125I-BBN (carrier free, 2200 Ci/mmole) was obtained from Perkin-Elmer.
A 96-well plate assay was used to determine the IC50 of various compounds of the invention to inhibit binding of ^125I-BBN to human GRP-R. The following general procedure was followed:
All compounds tested were dissolved in binding buffer and appropriate dilutions were also done in binding buffer. PC3 cells (human prostate cancer cell line) for assay were plated at a concentration of 2.0×10^4/well either in 96-well white/clear bottomed microtiter plates (Falcon Optilux-I) or 96 well black/clear collagen I cellware plates (Beckton Dickinson Biocoat). Plates were used for binding studies on day 1 or 2 post-plating. The plates were checked for confluency (>90% confluent) prior to assay. […] These studies were conducted with an assay volume of 75 μl per well. Triplicate wells were used for each data point. After the addition of the appropriate solutions, plates were incubated for 1 h at 4° C. to prevent internalization of the ligand-receptor complex. Incubation was ended by the addition of 200 μl of ice-cold incubation buffer. Plates were washed 5 times and blotted dry. Radioactivity was detected using either the LKB CompuGamma counter or a microplate scintillation counter.
All of the PC3 studies were performed as described in Example XLIII using ^125I-BBN. Selection of compounds for the assay was based on linker subtype.
PC3 cell lines were obtained from ATCC(CRL-1435) and cultured in RPMI 1640 (ATCC) supplemented with 2 mM L-glutamine, 1.5 g/L Sodium bicarbonate, 10 mM HEPES and 10% FBS. […]
All compounds tested were dissolved in binding buffer and appropriate dilutions were also done in binding buffer. […] Radioactivity was detected using either a LKB CompuGamma counter or a microplate scintillation counter.

[1] = system: BT-474 tumor-bearing nude mice; details: 1 hr; + Tamoxifen/+ ES, day 14, n = 3; control 2.18 ± 0.63
Protocol: Female nude mice ([Ncr]-Foxn1) received hormone supplementation by administration of 17β-estradiol via 60 day time released pellets implanted s.c. (0.72 mg/60 Day release; 0.6 mg/kg; Innovative Research of America, Sarasota, Fla.). Four to seven days after beginning hormone treatment, the mice were xenografted with ten million BT-474 cells in Matrigel (1:1 with PBS) s.c. to the flank. The 1713 estradiol is required for tumor cell growth in this model.
Control mice received vehicle-only time release pellets (in addition to hormone support).

[2] = system: human PC-3 nude mouse model; format: in vivo; details: i.v.
Protocol: 10-50 μCi of the HPLC purified compounds were administered to each mouse by i.v. tail vein injection, n=4 per group. At 1 h, 1 and 7 days post injection, the mice were terminated and the organs and tissues were harvested. Radioactivity was assayed in a gamma counter. The data was expressed as percentage of the total administered radioactivity (% ID) for the urine combined with the bladder, as well as for the blood pool; and percentage of the total administered radioactivity per gram (% ID/g) for all the other tested organs.

[3] = breast cancer (30% have HER2/neu, 30% treated respond); cited from earlier work
[4] = system: ZR-75-1 human breast cancer cells; assay: Glucose uptake (2-NBDG) in ZR-75-1 cells after 4-hydroxytamoxifen; format: cell-based; details: for % Change in 2-NBDG: ZR-75-1 cells
Protocol: For the glucose uptake study, a fluorescently labeled2-deoxyglucose derivative (2-NBDG) was used. […] The cell numbers were determined with CCK-F treatment as described above.
(§1) The ZR-75-1 cells were seeded at 15K per well onto two 96-well scintiplates on the same day as 2 days study.

[5] = system: GRP receptor binding in PC-3 prostate cancer cells; assay: Effect of drug treatment on GRP receptor binding (177Lu-AMBA) and proliferation in PC-3 cells; details: PC-3
Protocol: (§2) RPMI 1640 supplemented with 20 mM HEPES, 0.1% BSA (w/v), 0.5 mM PMSF (AEBSF), bacitracin (50 mg/500 ml), pH 7.4.
(§3) Treatment: BT-474 cells were plated on Day 0 (see above); approximately 24-48 h after plating, treatment Days 1 and 2 (DT1, DT2), the medium was removed and replaced with fresh growth medium (control), or growth medium with the addition of lapatinib (0.1-1.0 μM). […] Incubations were stopped by the addition of 200 μL of ice-cold binding buffer. Plates were washed three more times with binding buffer, 140 μL of scintillation fluid was added to each well, the plates were sealed and analyzed on a Microp plate reader (Microbeta Trilux, Perkin-Elmer).
(§4) Treatment: BT-474 cells were plated on Day 0 and treated on Days 1 and 2 (DT1, DT2).

[6] = system: GRP receptor binding in ZR-75-1 human breast cancer cells; assay: 4-hydroxytamoxifen effect on 177Lu-AMBA binding and proliferation in ZR-75-1 cells (2 to 12 days); format: cell-based; details: for % Change in Proliferation / % change in 177Lu-AMBA Uptake: ZR-75-1 cells
Protocol: Method: ZR-75-1 breast cancer cell line (human ductal carcinoma with estrogen receptor) was obtained from the American Type Culture Collection (ATCC).
ZR-75-1 cells were plated on Day 0 (40k/well 96-well PE Scintiplate). […] To determine the cell numbers and the proliferation, 100 uL of 10% CCK-F solution in DPBS (Molecular technologies) was added to the same plate, incubated for 30 min at 37° C. and the relative fluorescence (RFU) measured at 535 nm. Based on the cell numbers and the ^177Lu-binding, the Bmax (fmoles bound/million cells) was calculated.
ZR-75-1 breast cancer cell lines were cultured as described above.
as §1

[7] = system: GRP receptor binding in T47D human breast cancer cells; assay: Effect of drug treatment on GRP receptor binding (177Lu-AMBA) and proliferation in T-47D cells; format: cell-based; details: T-47D, relative to untreated control
Description: T-47D breast cancer cells (human metastatic mammary gland ductal adenocarcinoma isolated from pleural effusion, ER+, PR+) were obtained from the American Type Culture Collection.

[8] = system: GRP receptor binding in BT-474 human breast cancer cells; assay: Effect of drug treatment on GRP receptor binding (177Lu-AMBA) and proliferation in BT-474 cells; details: BT-474; relative to untreated control; drug 0.1-1.0 μM (4-OH Tamoxifen 0.001-0.1 μM)
Protocol: Cells for binding experiments were plated on Day 0 at 5.6×10^4 cells/cm^2 in 96-well white/clear bottom microtiter plates (Falcon Optilux-I), or 96 well black/clear collagen I cellware plates (Beckton Dickinson Biocoat).
as §2, §3, §4

[9] = system: GRP receptor binding in PC-3 prostate cancer cells; assay: Single plate assay: dasatinib effect on 177Lu-AMBA binding (Bmax) and proliferation (CCK-F) in PC-3 cells; format: cell-based; details: Homo sapiens, 100 nM Dasatinib, read-out: inhibition of growth (cell proliferation)
Protocol: The cells were plated on Day 0 (7.5k/well 96-well PE Scintiplate). […] To determine the cell numbers and the proliferation, 100 uL of 10% CCK-F solution in DPBS (Molecular technologies) was added to the same plate, incubated for 30 min at 37° C. and the relative fluorescence (RFU) measured at 535 nm. Base on the cell numbers and the ^177Lu-binding, the Bmax (fmoles bound/million cells) was calculated, and the results compared with the control.

[10] = ZR-75-1, 1-100 nM, treatment on days 2 and 3
[11] = drug 0.1-1.0 μM (4-OH Tamoxifen 0.001-0.1 μM)

T1 sequence (P30550 whole entry): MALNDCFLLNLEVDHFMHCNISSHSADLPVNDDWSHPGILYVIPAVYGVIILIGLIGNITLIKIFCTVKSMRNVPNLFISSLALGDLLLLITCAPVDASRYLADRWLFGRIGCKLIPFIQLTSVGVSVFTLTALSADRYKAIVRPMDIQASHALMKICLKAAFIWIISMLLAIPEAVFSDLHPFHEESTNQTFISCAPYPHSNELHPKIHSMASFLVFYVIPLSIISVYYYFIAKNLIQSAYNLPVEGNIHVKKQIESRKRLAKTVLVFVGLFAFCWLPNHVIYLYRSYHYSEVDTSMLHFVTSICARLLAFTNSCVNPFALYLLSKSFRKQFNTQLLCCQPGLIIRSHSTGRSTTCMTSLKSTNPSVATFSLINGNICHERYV

N-[(3β,5β,12α)-3-[[[4,7,10-Tris(carboxymethyl)-1,4,7,10-tetraazacyclododec-1-yl]acetyl]amino]-glycyl-4-aminobenzoyl-L-glutaminyl-L-tryptophyl-L-alanyl-glycyl-L-histidyl-L-phenylalanyl-L-leucinamide [Compound L224]
competition for GRP-R in PC3 cells (in words) (human GRP-R): complete loss of binding

N-[(3β,5β,12α)-3-[[[4,7,10-Tris(carboxymethyl)-1,4,7,10-tetraazacyclododec-1-yl]acetyl]amino]-glycyl-4-aminobenzoyl-L-glutaminyl-L-tryptophyl-L-alanyl-L-valyl-glycyl-L-histidyl-L-phenylalanyl-L-methioninamide [Compound L228]
competition for GRP-R in PC3 cells (in words) (human GRP-R): maintains GRP-R activity

CC/C(=C(\c1ccccc1)c1ccc(OCCN(C)C)cc1)c1ccccc1 [Tamoxifen]
177Lu-AMBA in Tumor (% ID/g) [1]: 0.70 ± 0.39 % ID/g

N-[(3β,5β,12α)-3-[[[4,7,10-Tris(carboxymethyl)-1,4,7,10-tetraazacyclododec-1-yl]acetyl]amino]-glycyl-4-aminobenzoyl-L-leucyl-L-tryptophyl-L-alanyl-L-valinyl-glycyl-L-serinyl-L-phenylalanyl-L-methioninamide [Compound L225]
competition for GRP-R in PC3 cells (in words) (human GRP-R): reduces competition at the GRP-R

CC1(N(CC(=O)O)CC(=O)O)CN(CC(=O)O)[C@@H]2CCCC[C@H]2N(CC(=O)O)C1 [XX100]
Blood 7 d % ID (*72 h timepoint) ([2]; 177Lu complex, 72 h timepoint): 0.00 ± 0.00 % ID
Tumor 7 d % ID/g (*72 h timepoint) ([2]; 177Lu complex, 72 h timepoint): 0.01 ± 0.00 % ID/g
distribution of radioactivity (in words) ([2]; Lu-177 complexes, 1 h, 1 and 7 days): rapidly cleared from the body with little residual localization in any organs or tissue

Herceptin
overall response [3]: 9%

CC/C(=C(\c1ccc(O)cc1)c1ccc(OCCN(C)C)cc1)c1ccccc1 [4-OH Tamoxifen]
2-NBDG uptake, long-term treatment, in words ([4]; ZR-75-1, 100 nM, 2-12 days): smaller changes
decrease in glycolysis (2-NBDG uptake) [4, 10]: ~20%
% Change in 2-NBDG ([4]; 100 nM, 5 days of treatment): −47.5%
% Change in 2-NBDG ([4]; 100 nM, 12 days of treatment): 14.5%
GRP receptor specific signal per cell (177Lu-AMBA binding) versus untreated controls, in words [5, 11]: no change
inhibition of proliferation, long-term treatment ([6]; ZR-75-1, 100 nM everyday, by 12 day): 28%
177Lu-AMBA uptake, long-term treatment, in words ([6]; ZR-75-1, 100 nM, 2-12 days): significant reduction
cell proliferation, in words [6, 10]: little change
% Change in Proliferation ([6]; 100 nM, 5 days of treatment): −11.3 (±8.3) %
% change in 177Lu-AMBA Uptake ([6]; 100 nM, 5 days of treatment): −77.4 (+1.6) %
% Change in Proliferation ([6]; 100 nM, 12 days of treatment): −28.0 (±14.1) %
% change in 177Lu-AMBA Uptake ([6]; 100 nM, 12 days of treatment): −72.3 (±14.6) %
% Change in Proliferation ([6]; 2 days of treatment): −7.2 (±3.8%
% change in 177Lu-AMBA Uptake ([6]; 2 days of treatment): −65.9 (±9.7) %
decrease in 177Lu-AMBA binding (GRP receptor specific signal per cell) [7, 11]: up to 35%
decrease in 177Lu-AMBA binding (GRP receptor specific signal per cell) [8]: up to 73%

DO3A-Gly-Abz-4-Gln-Trp-Ala-Val-Gly-His-Phe-Leu-NH2 [Compound L300]
competition for GRP-R in PC3 cells (in words) (human GRP-R): high activity at the GRP-R

Cc1nc(Nc2ncc(C(=O)Nc3c(C)cccc3Cl)s2)cc(N2CCN(CCO)CC2)n1 [dasatinib]
increase in 177Lu-AMBA binding (GRP receptor specific signal per cell) ([5]; relative to untreated control, drug 0.1-1.0 μM): up to 250%
increase in 177Lu-AMBA binding (GRP receptor specific signal per cell) ([7]; drug 0.1-1.0 μM (gefitinib 0.1-10 μM)): up to 500%
inhibition at 0.1 µM [9]: ≤ 33%
